Key:
[1] = test system: continuous-line conjunctival cells (Wong-Kilbourne derivative of Chang conjunctiva, clone 1-5C-4, ATCC CCL-20.2); assay: Apoptosis induced by benzalkonium chloride, percentage of cellular DNA in the sub-G1 phase by flux cytofluorimetry; format: cell-based
Procedure: The apoptosis induced by benzalkonium chloride was chosen as the model of superficial eye disorders treated and/or prevented by the invention.
This study of apoptosis is conducted using flux cytofluorimetry to compare the percentage of DNA in the sub-G1 phase obtained before and after treatment with the compounds of the invention.
In fact, apoptosis is characterized by a fragmentation of the DNA into identical fragments of 200 base pairs. The cells involved in this process therefore have a reduced DNA content.
This fragmentation of the DNA can be measured in situ by flux cytofluorimetry using the DNA stain propidium iodide. The reduced DNA appears with a lower fluorescence intensity than that of normal cells. […] The number of normal cells appears in the G1 peak zone. On the other hand, the cells which have a lower fluorescence intensity, i.e. those whose DNA has been fragmented, appear underneath this G1 peak, i.e. in what is called the sub-G1 peak located in the zone marked M1 in FIG. 1.
Apoptosis was induced by adding 0.001% by volume of benzalkonium chloride (BAC), based on the total volume of the sample, to DMEM (Dulbecco-modified Eagle's medium: reference 21885, Gibco BRL Products; enriched with 10% by volume of fetal calf serum, based on the total volume of the sample, and supplemented with […] of streptomycin and 50 IU/ml of penicillin) in which conjunctival cells are cultivated in 6-well plates.
In practice, the conjunctival cells were cultivated in the culture medium described above and, at 80% confluence, SOD, alpha-lipoic acid and mixtures thereof were added and incubation was carried out for 45 minutes at 37° C. Benzalkonium chloride was then added to each well. After 15 minutes of incubation, the supernatants in each well were collected in 15 ml tubes; the cells were detached by the action of 0.25% trypsin for 5 minutes at 37° C. and added to their respective supernatants. After centrifugation of the tubes, the cells were washed twice in phosphate buffer. The cellular residue was resuspended in phosphate buffer at a concentration of 1 million cells per milliliter.
One hundred microliters of this cellular suspension having a concentration of 10^6/ml were first fixed and permeabilized in one milliliter of absolute ethanol at −20° C. for one hour; then, after washing in phosphate buffer, the DNA was stained with propidium iodide (100 microliters at a concentration of 0.5 mg/ml) for one hour at 4° C. and subsequently analyzed on a cytofluorimeter (Epics XL-MCL, Beckman).
The percentage of sub-G1 peaks, i.e. the percentage of fragmented DNA, and consequently the number of conjunctival cells degraded by apoptosis, was measured.

[2] = test system: corneal and/or conjunctival cells of human origin, in culture; assay: Dichlorofluorescein diacetate (DCFH-DA) test of free radicals (hydrogen peroxide); format: cell-based; conditions: different concentrations; cells exposed to environmental agents
Procedure: The tests are performed by cytofluorimetric microtitration in cold light. […] It combines the reproducibility of the microplate methods with the sensitivity of the cytometric methods and has a very broad detection spectrum (280-870 nm). The microplate is scanned by a pencil of light of a given wavelength which illuminates each culture well for less than 0.3 second, thereby limiting any probe extinction phenomenon.
Corneal and/or conjunctival cells of human origin, in culture, are exposed to various environmental agents in order to induce the release of free radicals. The active compounds of the invention (Cu/Zn SOD or alpha-lipoic acid) are tested at different concentrations on this model. The presence of free radicals in the culture medium is evaluated by the DCFH-DA test (Molecular Probes, Eugene, Oreg., USA) in fluorimetry (λexc.=490 nm−rem.=535 nm, I=4 V). The fluorogenic probe becomes fluorescent when it binds to hydrogen peroxide. The DCFH-DA solution used is a 20 μM solution in Dulbecco-modified minimum essential medium (DMEM). The cultures are then placed for 20 minutes in DMEM containing the probe, after which they are extracted in order to measure the production of hydrogen peroxide. The measurement is made directly on the cells in 96-well plates (Debbasch C. et al. 2000).

[3] = test system: corneal and conjunctival cells of human origin, in culture; assay: Hydroethidine test of superoxide anion production; format: cell-based; conditions: different concentrations; cells exposed to various aggressors
Procedure: Corneal and conjunctival cells of human origin, in culture, exposed to various aggressors in order to induce the release of free radicals, are treated with the active compounds of the present invention (Cu/Zn SOD or alpha-lipoic acid) at different concentrations, or are left untreated.
Hydroethidine (Molecular Probes) is a fluorogenic probe which is oxidized to the ethidium cation in the presence of the superoxide anion. This probe becomes fluorescent when it binds to the superoxide anion (λexc.=490 nm−λem.=600 nm, I=6 V). The hydroethidine solution used is a 5 μM solution. The cell cultures are placed for 10 minutes in DMEM containing the probe, after which the cells are extracted in order to measure the production of superoxide anion. The measurement is made in 96-well microplates.
The analyses are thus performed on 5000 cells per well, each measurement being repeated six times. The results are expressed in fluorescence units. The mean fluorescence values are calculated in each group and compared by a Mann-Whitney non-parametric U-test.

[4] = after instillation into the eye (De Saint Jean et al. 1999); cited from earlier work

Row | Molecule | Percentage of sub-G1 peaks ([1]; alpha-lipoic acid 0.5 μg/ml DMEM + BAC 0.001%) [%] | Percentage of sub-G1 peaks ([1]; alpha-lipoic acid 0.5 μg/ml in DMEM, no BAC (control)) [%] | Percentage of sub-G1 peaks ([1]; alpha-lipoic acid 5 μg/ml DMEM + BAC 0.001%) [%] | Percentage of sub-G1 peaks ([1]; alpha-lipoic acid 5 μg/ml in DMEM, no BAC (control)) [%] | Deleterious effects of free radicals on corneal and/or conjunctival cells (DCFH-DA test) [2] | Production of superoxide anion and cellular degeneration associated with lipid peroxidation (hydroethidine test) [3] | Percentage of sub-G1 peaks ([1]; BAC 0.001% alone in DMEM (reference, maximum apoptosis; DMEM control = 10)) [%] | Half-life [4] [h]
1 | O=C(O)CCCCC1CCSS1 (racemic) [Alpha-lipoic acid, racemic alpha-lipoic acid] | 8 | 7 | 13 | 7 | significant dose-related decrease | significant dose-related reduction |  | 
2 | benzalkonium chloride [BAC] |  |  |  |  |  |  | 23 | 20

From patent publication US20030228299A1, “Use of antioxidant for treating and/or preventing surface ocular disorders” (priority 2003, published 2003)
